Experimental data published in PubChem BioAssay AID248 (DTP/NCI, 2004).
Values joined by “and” are separate entries in the source; they are usually repeats but may differ in a detail not shown here. Equal values may be shown once. Toxic doses and inconclusive results are not listed. Cut-off read from the data, not from the text of the source: active = T/C of 150% or more; inactive = T/C below 125%.

Test system: L1210 leukemia ip in BDF1 mice, survival T/C
Assay: NCI In Vivo Anticancer Drug Screen. Data for tumor model L1210 Leukemia (intraperitoneal) in B6D2F1 (BDF1) mice
Conditions: endpoint: mean survival time, higher = longer survival
Outline: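 Transplanted-tumor mice were given test agent; controls received vehicle only. Survival readings from the two groups were divided (treated over control).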

[1] = dose: 100.0 mg/kg/injection, schedule: Q01DX001 (ip), vehicle: saline
[2] = dose: 200.0 mg/kg/injection, schedule: Q01DX001 (ip), vehicle: saline
[3] = dose: 400.0 mg/kg/injection, schedule: Q01DX001 (ip), vehicle: saline
[4] = dose: 100.0 mg/kg/injection, schedule: Q04DX003 (ip), vehicle: saline
[5] = dose: 200.0 mg/kg/injection, schedule: Q04DX003 (ip), vehicle: saline
[6] = dose: 100.0 mg/kg/injection, schedule: Q01DX009 (ip), vehicle: saline
[7] = dose: 200.0 mg/kg/injection, schedule: Q01DX009 (ip), vehicle: saline
[8] = dose: 400.0 mg/kg/injection, schedule: Q01DX009 (ip), vehicle: saline
[9] = dose: 100.0 mg/kg/injection, schedule: Q04DX003 (ip), vehicle: saline with Tween-80
[10] = dose: 200.0 mg/kg/injection, schedule: Q04DX003 (ip), vehicle: saline with Tween-80
[11] = dose: 400.0 mg/kg/injection, schedule: Q04DX003 (ip), vehicle: saline with Tween-80
[12] = dose: 50.0 mg/kg/injection, schedule: Q01DX001 (ip), vehicle: saline
[13] = dose: 100.0 mg/kg/injection, schedule: Q01DX009 (ip), vehicle: Klucel (hydroxypropylcellulose) (HPC)
[14] = dose: 200.0 mg/kg/injection, schedule: Q01DX009 (ip), vehicle: Klucel (hydroxypropylcellulose) (HPC)
[15] = dose: 100.0 mg/kg/injection, schedule: Q04DX003 (ip), vehicle: other
[16] = dose: 200.0 mg/kg/injection, schedule: Q04DX003 (ip), vehicle: other
[17] = dose: 400.0 mg/kg/injection, schedule: Q04DX003 (ip), vehicle: other

Measured: T/C

Nc1nc2nc(-c3ccc([N+](=O)[O-])cc3)nc(N)c2nc1-c1ccc(N(CCCl)CCCl)cc1
inactive: [1] 96 % of control | [2] 95 % of control | [3] 101 % of control

Cn1c(=O)cc(C=Nc2ccc(C(=O)O)cc2)c2ccccc21
inactive: [1] 100 % of control | [2] 96 % of control | [3] 100 % of control

CCN(CC)CCn1ncc2c1C1(C)CCC2C1(C)C (stereo not drawn)
inactive: dose: 25.0 mg/kg/injection, schedule: Q01DX009 (ip), vehicle: saline + alcohol 100 % of control | dose: 50.0 mg/kg/injection, schedule: Q01DX009 (ip), vehicle: saline + alcohol 104 % of control | dose: 100.0 mg/kg/injection, schedule: Q01DX009 (ip), vehicle: saline + alcohol 102 % of control | [4] 101 % of control | [5] 102 % of control

O=C(O)C1Nc2ccccc2NC1=O (stereo not drawn)
inactive: dose: 100.0 mg/kg/injection, schedule: Q01DX001 (ip), vehicle: Klucel (hydroxypropylcellulose) (HPC) 100 % of control | dose: 200.0 mg/kg/injection, schedule: Q01DX001 (ip), vehicle: Klucel (hydroxypropylcellulose) (HPC) 94 % of control | dose: 400.0 mg/kg/injection, schedule: Q01DX001 (ip), vehicle: Klucel (hydroxypropylcellulose) (HPC) 106 % of control

CC1(C)NC(=O)N(CCCl)C1=O
inactive: dose: 50.0 mg/kg/injection, schedule: Q04DX003 (ip), vehicle: saline 97 % of control | [6] 96 % of control | [4] 92 % of control | [7] 96 % of control | [5] 97 % of control | [8] 98 % of control | dose: 400.0 mg/kg/injection, schedule: Q04DX003 (ip), vehicle: saline 103 % of control

OC1CC2CC1C1C3C=CC(C3)C21 (stereo not drawn)
inactive: dose: 6.25 mg/kg/injection, schedule: Q01DX009 (ip), vehicle: saline with Tween-80 98 % of control | dose: 12.5 mg/kg/injection, schedule: Q01DX009 (ip), vehicle: saline with Tween-80 101 % of control | dose: 25.0 mg/kg/injection, schedule: Q01DX009 (ip), vehicle: saline with Tween-80 101 % of control

CS(=O)(=O)C1(S(C)(=O)=O)Cc2ccccc2C1
inactive: [9] 91 % of control | [10] 92 % of control | [11] 100 % of control

CN(C)c1ccc(/C=N\NC(=O)CCCC(=O)N/N=C/c2ccc(N(C)C)cc2)cc1
inactive: [12] 93 % of control | [1] 96 % of control | [2] 98 % of control | [3] 93 % of control

CN(C)c1ccc([N+](=O)[O-])c2c1CCC2
inactive: [12] 111 % of control | [1] 90 % of control | [2] 106 % of control | [3] 106 % of control

O=C(O)CCCCOc1ccc([N+](=O)[O-])cc1Cl
inactive: [13] 109 % of control | [14] 103 % of control

CN(N=O)C(=O)Nc1c[nH]c(=O)[nH]c1=O
inactive: dose: 80.0 mg/kg/injection, schedule: Q01DX Z (ip), vehicle: carboxymethylcellulose (CMC) 101 % of control | dose: 91.1 mg/kg/injection, schedule: Q01DX Z (ip), vehicle: saline 98 % of control
active: dose: 10.0 mg/kg/injection, schedule: Q01DX Z (ip), vehicle: carboxymethylcellulose (CMC) 172 % of control | dose: 20.0 mg/kg/injection, schedule: Q01DX Z (ip), vehicle: carboxymethylcellulose (CMC) 207 % of control | dose: 27.0 mg/kg/injection, schedule: Q01DX Z (ip), vehicle: saline 151 % of control | dose: 40.0 mg/kg/injection, schedule: Q01DX Z (ip), vehicle: carboxymethylcellulose (CMC) 239 % of control | dose: 40.5 mg/kg/injection, schedule: Q01DX Z (ip), vehicle: saline 159 % of control | dose: 50.0 mg/kg/injection, schedule: Q01DX Z (ip), vehicle: carboxymethylcellulose (CMC) 165 % of control and 206 % of control | dose: 60.0 mg/kg/injection, schedule: Q01DX Z (ip), vehicle: carboxymethylcellulose (CMC) 183 % of control | dose: 60.7 mg/kg/injection, schedule: Q01DX Z (ip), vehicle: saline 162 % of control | dose: 240.0 mg/kg/injection, schedule: Q01DX001 (ip), vehicle: saline 185 % of control | dose: 480.0 mg/kg/injection, schedule: Q01DX001 (ip), vehicle: saline 188 % of control | dose: 960.0 mg/kg/injection, schedule: Q01DX001 (ip), vehicle: saline 173 % of control

Cc1ccc(S(=O)(=O)Nc2ccc3ncccc3c2[N+](=O)[O-])cc1
inactive: [1] 94 % of control | [2] 93 % of control | [3] 98 % of control

CC(=O)N1C(=O)NC(=O)C1(C)c1cccs1 (stereo not drawn)
inactive: [9] 104 % of control | [10] 98 % of control | [11] 105 % of control

CCC(C(=O)O)(c1ccccc1)c1ccccc1
inactive: dose: 100.0 mg/kg/injection, schedule: Q04DX002 (ip), vehicle: gum acacia 93 % of control | dose: 200.0 mg/kg/injection, schedule: Q04DX002 (ip), vehicle: gum acacia 111 % of control | dose: 400.0 mg/kg/injection, schedule: Q04DX002 (ip), vehicle: gum acacia 86 % of control

CCSc1nc(C=O)c(Cc2ccc(Br)cc2)c(=O)[nH]1
inactive: [9] 106 % of control | [10] 103 % of control | [11] 106 % of control

[CH3][Sn]([CH3])([CH3])[O]C(=O)CCl
inactive: dose: 0.78 mg/kg/injection, schedule: Q01DX009 (ip), vehicle: Klucel (hydroxypropylcellulose) (HPC) 97 % of control | dose: 0.78 mg/kg/injection, schedule: Q04DX002 (ip), vehicle: Klucel (hydroxypropylcellulose) (HPC) 97 % of control | dose: 1.56 mg/kg/injection, schedule: Q01DX009 (ip), vehicle: Klucel (hydroxypropylcellulose) (HPC) 87 % of control | dose: 1.56 mg/kg/injection, schedule: Q04DX002 (ip), vehicle: Klucel (hydroxypropylcellulose) (HPC) 93 % of control | dose: 3.12 mg/kg/injection, schedule: Q04DX002 (ip), vehicle: Klucel (hydroxypropylcellulose) (HPC) 93 % of control

O=C(O)c1cc(=O)c2ccc(Cl)cc2[nH]1
inactive: [1] 90 % of control | [15] 88 % of control | [2] 98 % of control | [16] 91 % of control | [3] 102 % of control | [17] 98 % of control

CC(=O)OC(C)COCc1ccccc1 (stereo not drawn)
inactive: [1] 107 % of control | [2] 89 % of control | [3] 100 % of control

Cc1cc(C)[nH]n1
inactive: [6] 103 % of control | [7] 104 % of control | [8] 100 % of control

O=C1C(Cl)=CC(=NBr)C=C1Cl
inactive: dose: 12.5 mg/kg/injection, schedule: Q04DX002 (ip), vehicle: Klucel (hydroxypropylcellulose) (HPC) 88 % of control | dose: 25.0 mg/kg/injection, schedule: Q04DX002 (ip), vehicle: Klucel (hydroxypropylcellulose) (HPC) 92 % of control | dose: 50.0 mg/kg/injection, schedule: Q04DX002 (ip), vehicle: Klucel (hydroxypropylcellulose) (HPC) 98 % of control

Cc1ccc(NC(=S)N(CCC#N)C2CCCCC2)cc1
inactive: [13] 101 % of control | [14] 104 % of control | dose: 400.0 mg/kg/injection, schedule: Q01DX009 (ip), vehicle: Klucel (hydroxypropylcellulose) (HPC) 101 % of control

NOc1ccc([N+](=O)[O-])cc1[N+](=O)[O-]
inactive: [9] 108 % of control

NC(=S)NO
inactive: dose: 50.0 mg/kg/injection, schedule: Q04DX003 (ip), vehicle: other 101 % of control | [15] 107 % of control | [16] 104 % of control | [17] 96 % of control

Brc1cccc2c1C[n+]1ccccc1-2
inactive: dose: 75.0 mg/kg/injection, schedule: Q01DX001 (ip), vehicle: saline 96 % of control | dose: 150.0 mg/kg/injection, schedule: Q01DX001 (ip), vehicle: saline 92 % of control

C=C(C)CC1(CC)C(=O)NC(=S)NC1=O
inactive: [9] 96 % of control | [10] 98 % of control

O=C(Nc1nn[nH]n1)C(F)(F)F
inactive: [1] 108 % of control | [2] 103 % of control | [3] 105 % of control

COc1ccc(/C(C#N)=C/c2ccc(N(C)CCC#N)cc2)cc1
inactive: dose: 12.5 mg/kg/injection, schedule: Q01DX009 (ip), vehicle: Klucel (hydroxypropylcellulose) (HPC) 103 % of control | dose: 25.0 mg/kg/injection, schedule: Q01DX009 (ip), vehicle: Klucel (hydroxypropylcellulose) (HPC) 100 % of control

COc1ccccc1CN1CCCOP1(=O)Nc1ccccc1 (stereo not drawn)
inactive: dose: 50.0 mg/kg/injection, schedule: Q01DX001 (ip), vehicle: carboxymethylcellulose (CMC) 91 % of control | dose: 100.0 mg/kg/injection, schedule: Q01DX001 (ip), vehicle: carboxymethylcellulose (CMC) 91 % of control | dose: 200.0 mg/kg/injection, schedule: Q01DX001 (ip), vehicle: carboxymethylcellulose (CMC) 93 % of control | dose: 400.0 mg/kg/injection, schedule: Q01DX001 (ip), vehicle: carboxymethylcellulose (CMC) 93 % of control
